Test results: paper PMC7651855 (ACS nano, 2019)
Bridges are numbered along the chain shown (N, C = ends). Where no end group is shown, it is not given here.

Tested on: C57bl/6 mice
Assay type: in vivo, mouse
Settings: n=3; for CNS accumulation of NA-HRP (result in words): biotin-peptide:NA-HRP complex, IP, 24 hours post-injection

Sequence	NA-delivery to the forebrain (result in words) (peptide-neutravidin-HRP, 10 μg per mouse IP, 24 hours)	CNS accumulation of NA-HRP (result in words)
SACPLSKGKLCGGG (disulfide 3-11 (inferred)) [TACL08]	increased NA-delivery to the forebrain when compared against controls	
SACSQKNFTHCGGG (disulfide 3-11 (inferred)) [TACL06]		trended toward significant CNS accumulation
SACHQSQSRMCGGG (disulfide 3-11 (inferred)) [TACL10]		trended toward significant CNS accumulation
